Usually IC50 stands for the concentration that inhibits the measured activity by half.

In this test the target is human PAD4 (Homo sapiens (Human), UniProt Q9UM07). Put plainly: In Vitro PAD4 BAEE Biochemical Assay. The settings on record: recombinant PAD4 5 nM, 2 mM calcium chloride, 3 mM BAEE substrate; geometric mean of multiple experiments. The gist of the method: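 Deimination of BAEE substrate (3 mM) measured as ammonia via o-phthalaldehyde–DTT isoindole fluorescence, 405/535 nm. Tag-free bacterially expressed human PAD4 at 5 nM with 2 mM calcium chloride, pH 7.6 MOPS buffer, 30 min compound preincubation then 2 h reaction, both at 25 °C.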
Chain of human PAD4 (Q9UM07 2-663): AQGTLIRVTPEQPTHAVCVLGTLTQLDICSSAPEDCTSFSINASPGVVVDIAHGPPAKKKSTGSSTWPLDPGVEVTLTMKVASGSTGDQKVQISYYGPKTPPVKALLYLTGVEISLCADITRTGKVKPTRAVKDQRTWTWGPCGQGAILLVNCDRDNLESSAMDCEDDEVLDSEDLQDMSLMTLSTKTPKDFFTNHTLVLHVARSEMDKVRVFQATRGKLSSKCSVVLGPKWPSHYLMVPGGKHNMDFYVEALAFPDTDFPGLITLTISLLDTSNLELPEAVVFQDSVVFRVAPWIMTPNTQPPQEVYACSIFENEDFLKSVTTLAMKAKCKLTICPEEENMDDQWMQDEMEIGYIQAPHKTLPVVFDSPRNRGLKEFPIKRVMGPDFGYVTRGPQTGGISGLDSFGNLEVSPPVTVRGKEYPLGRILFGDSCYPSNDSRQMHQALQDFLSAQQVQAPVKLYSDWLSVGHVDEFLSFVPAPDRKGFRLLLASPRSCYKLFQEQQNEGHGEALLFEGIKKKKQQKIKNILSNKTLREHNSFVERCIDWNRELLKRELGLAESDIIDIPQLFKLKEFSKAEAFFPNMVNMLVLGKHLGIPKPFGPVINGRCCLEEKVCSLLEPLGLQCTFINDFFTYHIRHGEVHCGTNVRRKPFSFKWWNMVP
As to `COc1cc(C(=O)N2C[C@H](N)[C@@H]3CC[C@H]2C3)cc2nc(-c3cc4ccc([C@@H](C)NC(=O)C56CC(F)(C5)C6)nc4n3CC3CC3)n(C3CC3)c12` [Example 317, N-((R)-1-(2-(5-((1S,4R,5R)-4-amino-2-azabicyclo[3.2.1]octane-2-carbonyl)-1-cyclopropyl-7-methoxy-1H-benzo[d]imidazol-2-yl)-1-(cyclopropylmethyl)-1H-pyrrolo[2,3-b]pyridin-6-yl)ethyl)-3-fluorobicyclo[1.1.1]pentane-1-carboxamide], the IC50 worked out at 124 nM. For the molecule `COc1cc(C(=O)N2C[C@H](N)[C@@H]3CC[C@H]2C3)cc2nc(-c3cc4ccc([C@@H](C)NC(=O)c5cnc(C(F)(F)F)cn5)nc4n3CC3CC3)n(C)c12` [Example 318, N-((R)-1-(2-(5-((1S,4R,5R)-4-amino-2-azabicyclo[3.2.1]octane-2-carbonyl)-7-methoxy-1-methyl-1H-benzo[d]imidazol-2-yl)-1-(cyclopropylmethyl)-1H-pyrrolo[2,3-b]pyridin-6-yl)ethyl)-5-(trifluoromethyl)pyrazine-2-carboxamide], the IC50 was found to be 252 nM.

In the case of `COc1cc(C(=O)N2C[C@H](N)[C@@H]3CC[C@H]2C3)cc2nc(-c3cc4ccc([C@@H](C)NC(=O)c5cnn(C6CC6)c5)nc4n3CC3CC3)n(C)c12` [Example 319, N-((R)-1-(2-(5-((1S,4R,5R)-4-amino-2-azabicyclo[3.2.1]octane-2-carbonyl)-7-methoxy-1-methyl-1H-benzo[d]imidazol-2-yl)-1-(cyclopropylmethyl)-1H-pyrrolo[2,3-b]pyridin-6-yl)ethyl)-1-cyclopropyl-1H-pyrazole-4-carboxamide], the IC50 is 58 nM. As to `COc1cc(C(=O)N2C[C@H](N)[C@@H]3CC[C@H]2C3)cc2nc(-c3cc4ccc([C@@H](C)NC(=O)c5cnn(C(F)(F)F)c5)nc4n3CC3CC3)n(C)c12` [Example 320, N-((R)-1-(2-(5-((1S,4R,5R)-4-amino-2-azabicyclo[3.2.1]octane-2-carbonyl)-7-methoxy-1-methyl-1H-benzo[d]imidazol-2-yl)-1-(cyclopropylmethyl)-1H-pyrrolo[2,3-b]pyridin-6-yl)ethyl)-1-(trifluoromethyl)-1H-pyrazole-4-carboxamide], the IC50 amounted to 82.6 nM.

As for `COc1cc(C(=O)N2C[C@H](N)[C@@H]3CC[C@H]2C3)cc2nc(-c3cc4ccc([C@@H](C)NC(=O)C(C)(C)OC)nc4n3CC3CC3)n(C)c12` [Example 321, N-((R)-1-(2-(5-((1S,4R,5R)-4-amino-2-azabicyclo[3.2.1]octane-2-carbonyl)-7-methoxy-1-methyl-1H-benzo[d]imidazol-2-yl)-1-(cyclopropylmethyl)-1H-pyrrolo[2,3-b]pyridin-6-yl)ethyl)-2-methoxy-2-methylpropanamide], the IC50 stood at 72 nM. With `COc1cc(C(=O)N2C[C@H](N)[C@@H]3CC[C@H]2C3)cc2nc(-c3cc4ccc([C@@H](C)NC(=O)C5(OC)CC5)nc4n3CC3CC3)n(C)c12` [Example 322, N-((R)-1-(2-(5-((1S,4R,5R)-4-amino-2-azabicyclo[3.2.1]octane-2-carbonyl)-7-methoxy-1-methyl-1H-benzo[d]imidazol-2-yl)-1-(cyclopropylmethyl)-1H-pyrrolo[2,3-b]pyridin-6-yl)ethyl)-1-methoxycyclopropane-1-carboxamide], the IC50 is 62 nM. For the molecule `COc1cc(C(=O)N2C[C@H](N)[C@@H]3CC[C@H]2C3)cc2nc(-c3cc4ccc([C@@H](C)NC(=O)C(C)(C)C(F)F)nc4n3CC3CC3)n(C)c12` [Example 323, N-((R)-1-(2-(5-((1S,4R,5R)-4-amino-2-azabicyclo[3.2.1]octane-2-carbonyl)-7-methoxy-1-methyl-1H-benzo[d]imidazol-2-yl)-1-(cyclopropylmethyl)-1H-pyrrolo[2,3-b]pyridin-6-yl)ethyl)-3,3-difluoro-2,2-dimethylpropanamide], the IC50 was found to be 84.6 nM.

Values taken from patent US11878965B2, “Inhibitors of peptidylarginine deiminases” (Gilead Sciences, Inc., priority 2020, dated 2024).
